Measurements published in ChEMBL document CHEMBL1137578, “Small molecules block the polymerization of Z alpha1-antitrypsin and increase the clearance of intracellular aggregates” (2007).
Values belong to the molecule of their own block, whether it stands above or below them. The source made the active and inactive calls. The rule behind the calls is not given here.

How the values were obtained:
[1] = species on record: Homo sapiens; experiment: Inhibition of polymerization of alpha-1-antitrypsin Z mutant
[2] = species on record: Mus musculus; experiment: (§1) Reduction in intracellular accumulation of alpha-1 antitrypsin Z mutant in mouse Hepa1a cells at 100 uM after 16 hrs; assay type: functional
[3] = species on record: Homo sapiens; experiment: Inhibition of polymerization of alpha-1-antitrypsin Z mutant at 10 uM
[4] = species on record: Homo sapiens; experiment: Inhibition of polymerization of alpha-1-antitrypsin Z mutant at 20 uM
[5] = as §1; assay type: functional; parameters: scale not given: the % may be the effect or the level left
[6] = species on record: Homo sapiens; experiment: Inhibition of polymerization of alpha-1-antitrypsin Z mutant at 50 uM
[7] = biological target: T1, Alpha-1-antichymotrypsin (Homo sapiens) (UniProt P01011); experiment: Inhibition of polymerization of alpha-1 antichymotrypsin at 200 uM
T1 sequence (whole entry): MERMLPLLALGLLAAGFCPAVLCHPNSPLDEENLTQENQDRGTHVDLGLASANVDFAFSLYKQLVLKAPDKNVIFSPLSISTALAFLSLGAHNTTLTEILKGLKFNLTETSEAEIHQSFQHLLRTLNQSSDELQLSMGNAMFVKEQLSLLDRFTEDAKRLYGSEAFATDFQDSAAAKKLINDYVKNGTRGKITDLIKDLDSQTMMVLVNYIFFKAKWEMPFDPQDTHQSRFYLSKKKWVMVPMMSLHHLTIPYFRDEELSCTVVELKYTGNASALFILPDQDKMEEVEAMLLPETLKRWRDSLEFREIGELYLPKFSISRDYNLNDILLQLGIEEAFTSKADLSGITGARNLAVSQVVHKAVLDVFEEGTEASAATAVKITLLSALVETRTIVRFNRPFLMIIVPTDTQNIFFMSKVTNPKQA

[8] = species on record: Homo sapiens; experiment: Inhibition of polymerization of alpha-1-antitrypsin Z mutant at 5 uM

Activity [1]: Active
Compound: NS(=O)(=O)c1ccc(Nc2nc(-c3ccc(O)cc3O)cs2)cc1

Compound: COc1c(C)cc(NS(=O)(=O)c2ccc(SC)cc2)cc1C
Activity [2]: inactive

Activity [3]: Active
Compound: Cc1cc(NS(=O)(=O)c2ccc([N+](=O)[O-])cc2)cc(C)c1O

Activity [1]: Active
Compound: CSc1ccc(C(Nc2ccccn2)c2oc(CO)cc(=O)c2O)cc1 (configuration not stated)

Activity [3]: Active
Compound: Cc1cc(NS(=O)(=O)c2ccccc2)cc(Cl)c1O

Activity [3]: Active
Compound: Cc1cc(NS(=O)(=O)c2cccc([N+](=O)[O-])c2)cc(C)c1O

Activity [4]: Active
Activity [6]: Active
Activity [7]: inactive
Compound: Cc1cc(S(=O)(=O)Nc2cc(C)c(O)c(C)c2)c(C)s1
Activity [5]: 70%

Activity [1]: Active
Compound: O=C1c2ccc(O)cc2OC(c2ccc(O)c(O)c2O)C1O (configuration not stated)

Activity [6]: Active
Compound: Cc1cc(NS(=O)(=O)c2ccccc2)cc(C)c1O

Activity [3]: Active
Activity [8]: Active
Compound: Cc1ccc(S(=O)(=O)Nc2cc(C)c(O)c(Sc3nnc(C)[nH]3)c2)cc1
Activity [2]: inactive

Activity [3]: Active
Compound: Oc1ccc(-c2n[nH]cc2-c2ccn(-c3ccccc3)n2)c(O)c1O

Activity [3]: Active
Compound: Oc1ccc(-c2n[nH]cc2-c2cnn(-c3ccccc3)c2)c(O)c1O

Activity [3]: Active
Activity [8]: Active
Compound: Cc1ccc(S(=O)(=O)Nc2cc(C)c(O)c(Sc3nnc[nH]3)c2)cc1

Activity [3]: Active
Activity [8]: Active
Compound: Cc1cc(NS(=O)(=O)c2ccccc2)cc(Br)c1O

Activity [1]: Active
Compound: COc1ccccc1Nc1ccc2c(O)cc(S(=O)(=O)O)cc2c1
